PubChem BioAssay (NCI)
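All cell lines were grown in 96-well plates and treated with compound for 48 hours. GI50 is the concentration that inhibits growth by half. Definition used: TGI = concentration required for complete inhibition of growth.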

What was measured:
Experiment in all cases: growth of human tumour cells (NCI), 48 h; in the data active = GI50 below about 0.43 µM; inactive = the rest
SK-MEL-5 melanoma = test system: SK-MEL-5 melanoma
U251 CNS = test system: U251 CNS
HOP-62 NSCLC = test system: HOP-62 NSCLC
SNB-19 CNS = test system: SNB-19 CNS
RPMI-8226 leukemia = test system: RPMI-8226 leukemia
HS 578T breast = test system: HS 578T breast
UACC-257 melanoma = test system: UACC-257 melanoma
UO-31 renal = test system: UO-31 renal
COLO 205 colon = test system: COLO 205 colon
CAKI-1 renal = test system: CAKI-1 renal
HCC-2998 colon = test system: HCC-2998 colon
SK-MEL-2 melanoma = test system: SK-MEL-2 melanoma
786-0 renal = test system: 786-0 renal
UACC-62 melanoma = test system: UACC-62 melanoma
SW-620 colon = test system: SW-620 colon
MDA-MB-231 breast = test system: MDA-MB-231 breast
OVCAR-8 ovarian = test system: OVCAR-8 ovarian
HCT-15 colon = test system: HCT-15 colon
CCRF-CEM leukemia = test system: CCRF-CEM leukemia
NCI-H460 lung = test system: NCI-H460 lung
MCF7 breast = test system: MCF7 breast
NCI-H226 lung = test system: NCI-H226 lung
HCT-116 colon = test system: HCT-116 colon
TK-10 renal = test system: TK-10 renal
PC-3 prostate = test system: PC-3 prostate
SF-268 CNS = test system: SF-268 CNS
HL-60(TB) leukemia = test system: HL-60(TB) leukemia
SK-OV-3 ovarian = test system: SK-OV-3 ovarian
SNB-75 CNS = test system: SNB-75 CNS
MDA-MB-435 = test system: MDA-MB-435
DU-145 prostate = test system: DU-145 prostate
MOLT-4 leukemia = test system: MOLT-4 leukemia
SF-539 CNS = test system: SF-539 CNS
HOP-92 NSCLC = test system: HOP-92 NSCLC
A549 NSCLC = test system: A549 NSCLC
NCI/ADR-RES ovarian = test system: NCI/ADR-RES ovarian
M14 melanoma = test system: M14 melanoma
IGROV1 ovarian = test system: IGROV1 ovarian
SN12C renal = test system: SN12C renal
OVCAR-3 ovarian = test system: OVCAR-3 ovarian
EKVX NSCLC = test system: EKVX NSCLC
HT29 colon = test system: HT29 colon
LOX IMVI melanoma = test system: LOX IMVI melanoma
OVCAR-5 ovarian = test system: OVCAR-5 ovarian
SR leukemia = test system: SR leukemia
OVCAR-4 ovarian = test system: OVCAR-4 ovarian
NCI-H522 lung = test system: NCI-H522 lung
RXF 393 renal = test system: RXF 393 renal
ACHN renal = test system: ACHN renal
MALME-3M melanoma = test system: MALME-3M melanoma
A498 renal = test system: A498 renal
T-47D breast = test system: T-47D breast
BT-549 breast = test system: BT-549 breast
SK-MEL-28 melanoma = test system: SK-MEL-28 melanoma
K-562 leukemia = test system: K-562 leukemia
NCI-H23 lung = test system: NCI-H23 lung
SF-295 CNS = test system: SF-295 CNS

COc1ccc(NC(=O)[C@H](C)NC(=O)OC(C)(C)C)cc1C(=O)Nc1cccc(-c2cc(=O)c3c(OC)c(OC)c(OC)cc3o2)c1
3.33 µM: TGI (UACC-62 melanoma)
9.52 µM: TGI (MCF7 breast)
9.44 µM: TGI (HS 578T breast)
> 100000 nM: TGI (SR leukemia)
5.23 µM: TGI (OVCAR-5 ovarian)
8.64 µM: TGI (SW-620 colon)
3.11 µM: TGI (LOX IMVI melanoma)
10.9 µM: TGI (A549 NSCLC)
> 100 µM: TGI (SNB-19 CNS) | TGI (UO-31 renal) | TGI (CAKI-1 renal) | TGI (786-0 renal) | TGI (PC-3 prostate) | TGI (SF-268 CNS) | TGI (DU-145 prostate) | TGI (NCI/ADR-RES ovarian) | TGI (IGROV1 ovarian) | TGI (EKVX NSCLC) | TGI (OVCAR-4 ovarian) | TGI (ACHN renal) | TGI (K-562 leukemia)
2990 nM: TGI (SK-MEL-5 melanoma)
7.94 µM: TGI (M14 melanoma)
3.2 µM: TGI (SNB-75 CNS)
4.14 µM: TGI (HOP-92 NSCLC)
4.87 µM: TGI (SK-OV-3 ovarian)
5.72 µM: TGI (SK-MEL-28 melanoma)
6.73 µM: TGI (MALME-3M melanoma)
2.99 µM: TGI (BT-549 breast)
3.59 µM: TGI (COLO 205 colon)
7.9 µM: TGI (MOLT-4 leukemia)
3370 nM: TGI (RXF 393 renal)
3.21 µM: TGI (HCC-2998 colon)
active: GI50 (HOP-92 NSCLC) 370 nM
3.99 µM: TGI (MDA-MB-231 breast) | TGI (NCI-H522 lung)
4.12 µM: TGI (SF-539 CNS)
4.43 µM: TGI (OVCAR-3 ovarian)
inactive: GI50 (SK-MEL-5 melanoma) 1470 nM | GI50 (U251 CNS) 2.46 µM | GI50 (HOP-62 NSCLC) 2.14 µM | GI50 (SNB-19 CNS) 3.56 µM | GI50 (RPMI-8226 leukemia) 1550 nM | GI50 (HS 578T breast) 2.64 µM | GI50 (UACC-257 melanoma) 1990 nM | GI50 (UO-31 renal) 2400 nM | GI50 (COLO 205 colon) 1870 nM | GI50 (CAKI-1 renal) 3.06 µM | GI50 (HCC-2998 colon) 1760 nM | GI50 (SK-MEL-2 melanoma) 1800 nM | GI50 (786-0 renal) 3030 nM | GI50 (UACC-62 melanoma) 1700 nM | GI50 (SW-620 colon) 2930 nM | GI50 (MDA-MB-231 breast) 1830 nM | GI50 (OVCAR-8 ovarian) 1.7 µM | GI50 (HCT-15 colon) 2380 nM | GI50 (CCRF-CEM leukemia) 1860 nM | GI50 (NCI-H460 lung) 2310 nM | GI50 (MCF7 breast) 2720 nM | GI50 (NCI-H226 lung) 1800 nM | GI50 (HCT-116 colon) 2050 nM | GI50 (TK-10 renal) 2.04 µM | GI50 (PC-3 prostate) 2950 nM | GI50 (SF-268 CNS) 3.41 µM | GI50 (HL-60(TB) leukemia) 2070 nM | GI50 (SK-OV-3 ovarian) 2.3 µM | GI50 (SNB-75 CNS) 1.46 µM | GI50 (MDA-MB-435) 2000 nM | GI50 (DU-145 prostate) 3860 nM | GI50 (MOLT-4 leukemia) 1710 nM | GI50 (SF-539 CNS) 1880 nM | GI50 (A549 NSCLC) 2940 nM | GI50 (NCI/ADR-RES ovarian) 8.01 µM | GI50 (M14 melanoma) 2980 nM | GI50 (IGROV1 ovarian) 3.25 µM | GI50 (SN12C renal) 2380 nM | GI50 (OVCAR-3 ovarian) 2130 nM | GI50 (EKVX NSCLC) 3.17 µM | GI50 (HT29 colon) 1880 nM | GI50 (LOX IMVI melanoma) 1590 nM | GI50 (OVCAR-5 ovarian) 2010 nM | GI50 (SR leukemia) 2370 nM | GI50 (OVCAR-4 ovarian) 3.13 µM | GI50 (NCI-H522 lung) 1720 nM | GI50 (RXF 393 renal) 1890 nM | GI50 (ACHN renal) 3340 nM | GI50 (MALME-3M melanoma) 2480 nM | GI50 (A498 renal) 3350 nM | GI50 (T-47D breast) 1700 nM | GI50 (BT-549 breast) 1520 nM | GI50 (SK-MEL-28 melanoma) 2500 nM | GI50 (K-562 leukemia) 2550 nM
3.8 µM: TGI (UACC-257 melanoma)
3.84 µM: TGI (NCI-H226 lung)
4.63 µM: TGI (HCT-116 colon)
32.7 µM: TGI (A498 renal)
7.27 µM: TGI (HCT-15 colon)
5.24 µM: TGI (NCI-H460 lung)
7.78 µM: TGI (TK-10 renal)
5.18 µM: TGI (HOP-62 NSCLC)
5.07 µM: TGI (RPMI-8226 leukemia)
4.11 µM: TGI (MDA-MB-435)
4.96 µM: TGI (HL-60(TB) leukemia)
6.61 µM: TGI (U251 CNS)
8.26 µM: TGI (CCRF-CEM leukemia)
4.29 µM: TGI (SK-MEL-2 melanoma)
5.47 µM: TGI (OVCAR-8 ovarian)
3.87 µM: TGI (HT29 colon)
7.34 µM: TGI (SN12C renal)
5.97 µM: TGI (T-47D breast)

Brc1cccc(/C=N/Nc2nc(N/N=C/c3cccc(Br)c3)nc(N3CCOCC3)n2)c1
66.9 µM: TGI (BT-549 breast)
> 100 µM: TGI (U251 CNS) | TGI (HS 578T breast) | TGI (UO-31 renal) | TGI (COLO 205 colon) | TGI (CAKI-1 renal) | TGI (HCC-2998 colon) | TGI (SW-620 colon) | TGI (NCI-H23 lung) | TGI (MDA-MB-231 breast) | TGI (OVCAR-8 ovarian) | TGI (HCT-15 colon) | TGI (NCI-H460 lung) | TGI (MCF7 breast) | TGI (HCT-116 colon) | TGI (TK-10 renal) | TGI (SF-295 CNS) | TGI (PC-3 prostate) | TGI (SF-268 CNS) | TGI (DU-145 prostate) | TGI (SF-539 CNS) | TGI (NCI/ADR-RES ovarian) | TGI (IGROV1 ovarian) | TGI (OVCAR-3 ovarian) | TGI (HT29 colon) | TGI (LOX IMVI melanoma) | TGI (OVCAR-5 ovarian) | TGI (OVCAR-4 ovarian) | TGI (ACHN renal) | TGI (T-47D breast) | TGI (K-562 leukemia)
58.7 µM: TGI (SNB-19 CNS)
6.47 µM: TGI (SK-MEL-2 melanoma)
4.78 µM: TGI (786-0 renal)
64 µM: TGI (SK-OV-3 ovarian)
55.6 µM: TGI (HOP-62 NSCLC)
8.51 µM: TGI (NCI-H226 lung)
2290 nM: TGI (SR leukemia)
4.26 µM: TGI (A498 renal)
29.6 µM: TGI (SNB-75 CNS)
1950 nM: TGI (RXF 393 renal)
inactive: GI50 (U251 CNS) 4.22 µM | GI50 (HOP-62 NSCLC) 8.07 µM | GI50 (SNB-19 CNS) 12.9 µM | GI50 (HS 578T breast) 3.6 µM | GI50 (UO-31 renal) 1010 nM | GI50 (COLO 205 colon) 1240 nM | GI50 (CAKI-1 renal) 3.52 µM | GI50 (HCC-2998 colon) 3060 nM | GI50 (SK-MEL-2 melanoma) 2430 nM | GI50 (786-0 renal) 529 nM | GI50 (SW-620 colon) 825 nM | GI50 (NCI-H23 lung) 4.5 µM | GI50 (MDA-MB-231 breast) 3970 nM | GI50 (OVCAR-8 ovarian) 5 µM | GI50 (NCI-H460 lung) 3430 nM | GI50 (MCF7 breast) 2640 nM | GI50 (NCI-H226 lung) 2460 nM | GI50 (HCT-116 colon) 780 nM | GI50 (TK-10 renal) 8.75 µM | GI50 (SF-295 CNS) 4.94 µM | GI50 (PC-3 prostate) 2900 nM | GI50 (SF-268 CNS) 8.4 µM | GI50 (SK-OV-3 ovarian) 14.7 µM | GI50 (SNB-75 CNS) 4.54 µM | GI50 (DU-145 prostate) 1310 nM | GI50 (SF-539 CNS) 3830 nM | GI50 (HOP-92 NSCLC) 1240 nM | GI50 (NCI/ADR-RES ovarian) 3.25 µM | GI50 (IGROV1 ovarian) 2.92 µM | GI50 (OVCAR-3 ovarian) 3810 nM | GI50 (HT29 colon) 609 nM | GI50 (LOX IMVI melanoma) 2660 nM | GI50 (OVCAR-5 ovarian) > 100000 nM | GI50 (OVCAR-4 ovarian) 4.89 µM | GI50 (ACHN renal) 2210 nM | GI50 (T-47D breast) 3940 nM | GI50 (BT-549 breast) 3540 nM
8.92 µM: TGI (HOP-92 NSCLC)
active: GI50 (HCT-15 colon) 423 nM | GI50 (SR leukemia) 160 nM | GI50 (RXF 393 renal) 159 nM | GI50 (A498 renal) 137 nM | GI50 (K-562 leukemia) 336 nM
